According to ChEMBL document CHEMBL1145498, “A systematic interaction map of validated kinase inhibitors with Ser/Thr kinases” (Proc Natl Acad Sci U S A, 2007):

Biological target: T1, Serine/threonine-protein kinase VRK3 (Homo sapiens) (UniProt Q8IV63)
T1 sequence (whole entry): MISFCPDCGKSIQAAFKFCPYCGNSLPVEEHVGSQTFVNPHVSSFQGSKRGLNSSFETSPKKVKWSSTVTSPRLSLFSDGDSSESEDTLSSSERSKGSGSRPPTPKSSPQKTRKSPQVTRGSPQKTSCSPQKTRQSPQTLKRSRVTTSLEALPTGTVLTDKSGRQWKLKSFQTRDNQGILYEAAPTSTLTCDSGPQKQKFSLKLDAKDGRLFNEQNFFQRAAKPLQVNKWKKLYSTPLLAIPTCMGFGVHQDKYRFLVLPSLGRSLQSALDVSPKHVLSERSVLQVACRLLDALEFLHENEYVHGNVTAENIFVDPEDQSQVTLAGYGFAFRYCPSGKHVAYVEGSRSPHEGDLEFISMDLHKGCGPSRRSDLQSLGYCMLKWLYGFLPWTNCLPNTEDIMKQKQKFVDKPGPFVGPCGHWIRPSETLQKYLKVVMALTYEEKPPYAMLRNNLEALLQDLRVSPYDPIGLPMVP

| ΔTm | Structure (SMILES) |
| --- | --- |
| -0.2 °C | O=C1Cc2c([nH]c3ccc(Br)cc23)-c2ccccc2N1 [KENPAULLONE] |
| 0.1 °C | O=C1Nc2ccccc2/C1=C\c1ccc[nH]1 |

| Structure (SMILES) | ΔTm |
| --- | --- |
| CCOc1ccc(/C=C2/SC(=O)N(CCN)C2=O)cc1 [HIAZOLIDINEDIONE1] | -1.1 °C |

Biological target: T2, Serine/threonine-protein kinase 17A (Homo sapiens) (UniProt Q9UEE5)
T2 sequence (whole entry): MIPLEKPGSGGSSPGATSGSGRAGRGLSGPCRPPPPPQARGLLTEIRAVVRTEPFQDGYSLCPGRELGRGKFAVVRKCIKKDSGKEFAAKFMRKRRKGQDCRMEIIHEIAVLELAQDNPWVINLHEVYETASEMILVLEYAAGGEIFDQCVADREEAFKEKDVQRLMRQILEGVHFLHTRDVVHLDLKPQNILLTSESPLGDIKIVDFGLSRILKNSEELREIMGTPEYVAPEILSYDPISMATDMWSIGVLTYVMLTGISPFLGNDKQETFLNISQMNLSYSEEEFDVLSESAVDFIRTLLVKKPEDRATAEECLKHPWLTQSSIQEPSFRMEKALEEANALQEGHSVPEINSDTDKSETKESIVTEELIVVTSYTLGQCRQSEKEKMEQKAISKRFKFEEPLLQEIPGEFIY

| ΔTm | Structure (SMILES) |
| --- | --- |
| 5.9 °C | O=C1Cc2c([nH]c3ccc(Br)cc23)-c2ccccc2N1 [KENPAULLONE] |
| 11 °C | O=C1Nc2ccccc2/C1=C\c1ccc[nH]1 |

| Structure (SMILES) | ΔTm |
| --- | --- |
| CCOc1ccc(/C=C2/SC(=O)N(CCN)C2=O)cc1 [HIAZOLIDINEDIONE1] | -0.6 °C |

Biological target: Serine/threonine-protein kinase 26 (Homo sapiens) (UniProt Q9P289)
Sequence (Q9P289 2-416 limits assumed): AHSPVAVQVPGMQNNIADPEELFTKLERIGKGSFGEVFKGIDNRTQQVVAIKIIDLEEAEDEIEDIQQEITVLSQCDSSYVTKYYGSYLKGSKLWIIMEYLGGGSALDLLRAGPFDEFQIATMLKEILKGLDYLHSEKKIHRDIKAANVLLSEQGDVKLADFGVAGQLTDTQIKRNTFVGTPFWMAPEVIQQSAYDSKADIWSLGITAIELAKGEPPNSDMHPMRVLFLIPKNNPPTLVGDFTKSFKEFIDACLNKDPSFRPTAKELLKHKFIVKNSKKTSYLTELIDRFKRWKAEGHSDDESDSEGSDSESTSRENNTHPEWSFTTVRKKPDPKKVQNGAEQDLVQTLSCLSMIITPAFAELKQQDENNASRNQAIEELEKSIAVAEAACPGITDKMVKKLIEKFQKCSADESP

| ΔTm | Structure (SMILES) |
| --- | --- |
| 1.4 °C | O=C1Cc2c([nH]c3ccc(Br)cc23)-c2ccccc2N1 [KENPAULLONE] |
| 3.5 °C | O=C1Nc2ccccc2/C1=C\c1ccc[nH]1 |

| Structure (SMILES) | ΔTm |
| --- | --- |
| CCOc1ccc(/C=C2/SC(=O)N(CCN)C2=O)cc1 [HIAZOLIDINEDIONE1] | -0.3 °C |

Biological target: Serine/threonine-protein kinase PAK 6 (Homo sapiens) (UniProt Q9NQU5)
Sequence (Q9NQU5 whole entry, looked up): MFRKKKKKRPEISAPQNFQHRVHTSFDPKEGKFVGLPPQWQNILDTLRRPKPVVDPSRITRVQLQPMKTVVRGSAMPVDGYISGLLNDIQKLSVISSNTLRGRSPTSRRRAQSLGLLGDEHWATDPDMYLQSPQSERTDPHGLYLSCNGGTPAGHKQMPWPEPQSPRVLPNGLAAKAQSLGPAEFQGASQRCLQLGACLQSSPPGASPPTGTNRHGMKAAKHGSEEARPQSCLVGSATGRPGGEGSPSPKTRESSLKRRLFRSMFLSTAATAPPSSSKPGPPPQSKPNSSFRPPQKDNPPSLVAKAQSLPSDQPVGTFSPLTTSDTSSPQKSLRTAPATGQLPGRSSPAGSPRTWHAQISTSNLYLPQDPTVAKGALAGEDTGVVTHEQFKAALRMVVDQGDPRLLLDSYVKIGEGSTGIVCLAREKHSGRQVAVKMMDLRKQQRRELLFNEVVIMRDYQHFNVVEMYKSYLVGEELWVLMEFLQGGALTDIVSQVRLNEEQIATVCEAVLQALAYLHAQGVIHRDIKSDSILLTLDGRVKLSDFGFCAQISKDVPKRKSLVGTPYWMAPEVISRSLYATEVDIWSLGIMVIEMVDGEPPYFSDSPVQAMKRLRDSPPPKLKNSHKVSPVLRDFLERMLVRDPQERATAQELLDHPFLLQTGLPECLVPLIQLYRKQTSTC

| ΔTm | Structure (SMILES) |
| --- | --- |
| 3.7 °C | O=C1Cc2c([nH]c3ccc(Br)cc23)-c2ccccc2N1 [KENPAULLONE] |
| 1.6 °C | O=C1Nc2ccccc2/C1=C\c1ccc[nH]1 |

| Structure (SMILES) | ΔTm |
| --- | --- |
| CCOc1ccc(/C=C2/SC(=O)N(CCN)C2=O)cc1 [HIAZOLIDINEDIONE1] | -0.5 °C |

Biological target: cAMP-dependent protein kinase catalytic subunit alpha (Homo sapiens) (UniProt P17612)

| ΔTm | Structure (SMILES) |
| --- | --- |
| 1 °C | O=C1Cc2c([nH]c3ccc(Br)cc23)-c2ccccc2N1 [KENPAULLONE] |
| 1.7 °C | O=C1Nc2ccccc2/C1=C\c1ccc[nH]1 |

| Structure (SMILES) | ΔTm |
| --- | --- |
| CCOc1ccc(/C=C2/SC(=O)N(CCN)C2=O)cc1 [HIAZOLIDINEDIONE1] | 0.5 °C |

Biological target: 5'-AMP-activated protein kinase catalytic subunit alpha-2 (Homo sapiens) (UniProt P54646)
Sequence (P54646 whole entry, looked up): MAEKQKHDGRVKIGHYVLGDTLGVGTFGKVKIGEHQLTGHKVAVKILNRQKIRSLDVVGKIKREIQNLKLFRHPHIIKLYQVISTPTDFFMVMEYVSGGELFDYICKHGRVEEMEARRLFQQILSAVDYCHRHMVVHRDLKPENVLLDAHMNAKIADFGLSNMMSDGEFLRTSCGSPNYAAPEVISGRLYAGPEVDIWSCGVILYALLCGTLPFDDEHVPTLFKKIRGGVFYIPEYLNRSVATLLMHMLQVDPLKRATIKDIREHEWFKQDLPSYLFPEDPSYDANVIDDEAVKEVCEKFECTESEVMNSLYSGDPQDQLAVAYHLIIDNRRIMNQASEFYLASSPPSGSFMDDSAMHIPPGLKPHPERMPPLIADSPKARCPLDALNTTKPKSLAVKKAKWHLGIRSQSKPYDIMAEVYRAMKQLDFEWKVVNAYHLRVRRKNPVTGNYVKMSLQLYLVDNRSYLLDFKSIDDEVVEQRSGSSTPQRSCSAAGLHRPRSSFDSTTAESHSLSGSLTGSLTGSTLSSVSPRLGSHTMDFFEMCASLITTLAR

| ΔTm | Structure (SMILES) |
| --- | --- |
| 1.1 °C | O=C1Cc2c([nH]c3ccc(Br)cc23)-c2ccccc2N1 [KENPAULLONE] |
| 3.2 °C | O=C1Nc2ccccc2/C1=C\c1ccc[nH]1 |

| Structure (SMILES) | ΔTm |
| --- | --- |
| CCOc1ccc(/C=C2/SC(=O)N(CCN)C2=O)cc1 [HIAZOLIDINEDIONE1] | 0.1 °C |

Biological target: T3, Mitogen-activated protein kinase kinase kinase 5 (Homo sapiens) (UniProt Q99683)
T3 sequence (whole entry): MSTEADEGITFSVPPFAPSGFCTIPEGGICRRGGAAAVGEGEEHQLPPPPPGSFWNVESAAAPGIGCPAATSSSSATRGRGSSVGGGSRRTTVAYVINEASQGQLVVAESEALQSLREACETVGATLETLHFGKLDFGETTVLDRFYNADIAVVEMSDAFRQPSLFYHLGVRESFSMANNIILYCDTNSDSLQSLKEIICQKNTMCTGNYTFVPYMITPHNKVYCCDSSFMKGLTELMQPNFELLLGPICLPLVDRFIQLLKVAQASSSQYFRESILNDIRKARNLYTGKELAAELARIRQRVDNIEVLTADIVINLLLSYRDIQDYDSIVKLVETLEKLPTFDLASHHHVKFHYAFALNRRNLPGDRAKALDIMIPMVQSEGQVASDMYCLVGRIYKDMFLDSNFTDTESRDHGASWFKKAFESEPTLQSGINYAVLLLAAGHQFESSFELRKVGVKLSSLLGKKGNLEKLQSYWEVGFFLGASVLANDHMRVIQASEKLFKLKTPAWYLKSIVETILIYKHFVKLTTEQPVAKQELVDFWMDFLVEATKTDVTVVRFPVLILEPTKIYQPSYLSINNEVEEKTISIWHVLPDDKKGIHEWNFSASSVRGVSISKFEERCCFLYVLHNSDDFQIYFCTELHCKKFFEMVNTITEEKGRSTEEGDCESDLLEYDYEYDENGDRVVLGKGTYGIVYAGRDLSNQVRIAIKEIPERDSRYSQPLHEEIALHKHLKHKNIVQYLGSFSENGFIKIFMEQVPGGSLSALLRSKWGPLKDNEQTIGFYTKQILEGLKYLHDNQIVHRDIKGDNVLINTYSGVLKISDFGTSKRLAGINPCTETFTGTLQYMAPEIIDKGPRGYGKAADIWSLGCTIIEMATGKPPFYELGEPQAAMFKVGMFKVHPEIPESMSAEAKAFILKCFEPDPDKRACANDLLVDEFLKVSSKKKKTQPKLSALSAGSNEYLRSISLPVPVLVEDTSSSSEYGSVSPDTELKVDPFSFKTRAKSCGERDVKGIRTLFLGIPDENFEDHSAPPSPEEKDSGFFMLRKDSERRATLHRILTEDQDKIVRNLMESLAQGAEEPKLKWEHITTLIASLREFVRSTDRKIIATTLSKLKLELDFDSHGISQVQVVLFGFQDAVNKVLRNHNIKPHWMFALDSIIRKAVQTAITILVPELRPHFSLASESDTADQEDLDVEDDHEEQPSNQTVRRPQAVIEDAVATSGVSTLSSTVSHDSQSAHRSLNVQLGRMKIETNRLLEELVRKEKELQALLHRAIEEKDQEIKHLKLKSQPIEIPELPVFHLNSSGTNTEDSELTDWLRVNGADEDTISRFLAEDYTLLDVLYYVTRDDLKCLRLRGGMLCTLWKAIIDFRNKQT

| ΔTm | Structure (SMILES) |
| --- | --- |
| 0.8 °C | O=C1Cc2c([nH]c3ccc(Br)cc23)-c2ccccc2N1 [KENPAULLONE] |
| 5.2 °C | O=C1Nc2ccccc2/C1=C\c1ccc[nH]1 |

| Structure (SMILES) | ΔTm |
| --- | --- |
| CCOc1ccc(/C=C2/SC(=O)N(CCN)C2=O)cc1 [HIAZOLIDINEDIONE1] | 0.4 °C |

Biological target: Serine/threonine-protein kinase Nek6 (Homo sapiens) (UniProt Q9HC98)
Sequence (Q9HC98 whole entry): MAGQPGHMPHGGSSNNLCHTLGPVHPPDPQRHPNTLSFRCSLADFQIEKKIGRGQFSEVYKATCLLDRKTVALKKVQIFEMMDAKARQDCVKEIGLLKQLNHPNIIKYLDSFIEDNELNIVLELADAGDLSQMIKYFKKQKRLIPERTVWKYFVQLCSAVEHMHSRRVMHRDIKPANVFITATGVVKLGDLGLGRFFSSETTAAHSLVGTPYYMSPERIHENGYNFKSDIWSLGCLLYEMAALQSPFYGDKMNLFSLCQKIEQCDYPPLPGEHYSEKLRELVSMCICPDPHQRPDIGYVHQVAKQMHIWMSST

| ΔTm | Structure (SMILES) |
| --- | --- |
| 0.4 °C | O=C1Cc2c([nH]c3ccc(Br)cc23)-c2ccccc2N1 [KENPAULLONE] |
| 0 °C | O=C1Nc2ccccc2/C1=C\c1ccc[nH]1 |

| Structure (SMILES) | ΔTm |
| --- | --- |
| CCOc1ccc(/C=C2/SC(=O)N(CCN)C2=O)cc1 [HIAZOLIDINEDIONE1] | -1.7 °C |

Biological target: Serine/threonine-protein kinase pim-2 (Homo sapiens, UniProt Q9P1W9)
Sequence (Q9P1W9 whole entry, looked up): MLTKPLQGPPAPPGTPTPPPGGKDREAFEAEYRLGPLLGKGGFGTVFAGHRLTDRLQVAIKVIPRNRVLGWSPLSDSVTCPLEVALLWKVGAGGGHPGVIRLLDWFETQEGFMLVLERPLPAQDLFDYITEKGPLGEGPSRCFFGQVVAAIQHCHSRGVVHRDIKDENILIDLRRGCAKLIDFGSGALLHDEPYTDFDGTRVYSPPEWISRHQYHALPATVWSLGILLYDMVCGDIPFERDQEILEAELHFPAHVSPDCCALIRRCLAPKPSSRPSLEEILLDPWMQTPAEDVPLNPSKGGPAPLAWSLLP

| ΔTm | Structure (SMILES) |
| --- | --- |
| 1.2 °C | O=C1Cc2c([nH]c3ccc(Br)cc23)-c2ccccc2N1 [KENPAULLONE] |
| 0.8 °C | O=C1Nc2ccccc2/C1=C\c1ccc[nH]1 |

| Structure (SMILES) | ΔTm |
| --- | --- |
| CCOc1ccc(/C=C2/SC(=O)N(CCN)C2=O)cc1 [HIAZOLIDINEDIONE1] | -0.1 °C |

Biological target: Casein kinase I isoform gamma-3 (Homo sapiens) (UniProt Q9Y6M4)
Sequence (Q9Y6M4 whole entry, looked up, canonical isoform): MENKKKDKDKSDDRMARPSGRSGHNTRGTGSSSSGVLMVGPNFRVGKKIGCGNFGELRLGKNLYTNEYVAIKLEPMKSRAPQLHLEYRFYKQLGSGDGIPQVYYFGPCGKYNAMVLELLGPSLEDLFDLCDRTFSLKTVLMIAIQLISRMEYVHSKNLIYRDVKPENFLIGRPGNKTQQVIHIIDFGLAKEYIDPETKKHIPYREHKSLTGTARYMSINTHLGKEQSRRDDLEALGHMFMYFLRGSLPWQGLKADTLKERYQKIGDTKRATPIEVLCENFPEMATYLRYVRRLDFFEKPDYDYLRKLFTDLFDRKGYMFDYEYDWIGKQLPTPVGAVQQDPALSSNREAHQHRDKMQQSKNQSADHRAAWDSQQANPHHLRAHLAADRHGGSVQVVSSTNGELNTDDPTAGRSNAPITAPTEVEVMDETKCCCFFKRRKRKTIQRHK

| ΔTm | Structure (SMILES) |
| --- | --- |
| 0.4 °C | O=C1Cc2c([nH]c3ccc(Br)cc23)-c2ccccc2N1 [KENPAULLONE] |
| 1.8 °C | O=C1Nc2ccccc2/C1=C\c1ccc[nH]1 |

| Structure (SMILES) | ΔTm |
| --- | --- |
| CCOc1ccc(/C=C2/SC(=O)N(CCN)C2=O)cc1 [HIAZOLIDINEDIONE1] | -0.1 °C |

Biological target: Serine/threonine-protein kinase 10 (Homo sapiens) (UniProt O94804)
Sequence (O94804 whole entry, looked up): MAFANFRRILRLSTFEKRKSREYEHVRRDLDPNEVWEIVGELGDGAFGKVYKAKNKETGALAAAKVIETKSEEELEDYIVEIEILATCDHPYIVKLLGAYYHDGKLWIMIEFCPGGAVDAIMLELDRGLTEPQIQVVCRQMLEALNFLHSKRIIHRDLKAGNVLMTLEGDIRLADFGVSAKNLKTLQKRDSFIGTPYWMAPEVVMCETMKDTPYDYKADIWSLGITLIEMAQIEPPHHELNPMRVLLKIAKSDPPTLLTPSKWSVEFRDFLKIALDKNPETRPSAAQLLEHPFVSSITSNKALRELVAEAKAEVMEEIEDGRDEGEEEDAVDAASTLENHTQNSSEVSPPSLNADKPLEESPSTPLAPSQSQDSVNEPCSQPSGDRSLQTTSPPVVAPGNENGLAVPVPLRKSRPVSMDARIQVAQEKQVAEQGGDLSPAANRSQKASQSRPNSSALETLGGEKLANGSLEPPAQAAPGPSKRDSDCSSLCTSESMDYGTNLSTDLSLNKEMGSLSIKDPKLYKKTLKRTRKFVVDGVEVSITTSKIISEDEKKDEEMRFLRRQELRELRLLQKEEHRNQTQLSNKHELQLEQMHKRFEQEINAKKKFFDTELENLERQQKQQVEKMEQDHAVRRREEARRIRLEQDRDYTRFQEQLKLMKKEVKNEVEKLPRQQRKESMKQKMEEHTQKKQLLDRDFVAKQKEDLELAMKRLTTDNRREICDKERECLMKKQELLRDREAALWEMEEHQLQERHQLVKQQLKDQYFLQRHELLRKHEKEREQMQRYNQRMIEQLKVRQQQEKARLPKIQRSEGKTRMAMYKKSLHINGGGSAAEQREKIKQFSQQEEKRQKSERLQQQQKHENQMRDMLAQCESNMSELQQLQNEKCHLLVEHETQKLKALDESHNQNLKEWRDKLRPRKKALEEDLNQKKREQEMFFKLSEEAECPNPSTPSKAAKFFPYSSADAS

| ΔTm | Structure (SMILES) |
| --- | --- |
| 2.2 °C | O=C1Cc2c([nH]c3ccc(Br)cc23)-c2ccccc2N1 [KENPAULLONE] |
| 5.3 °C | O=C1Nc2ccccc2/C1=C\c1ccc[nH]1 |

| Structure (SMILES) | ΔTm |
| --- | --- |
| CCOc1ccc(/C=C2/SC(=O)N(CCN)C2=O)cc1 [HIAZOLIDINEDIONE1] | 0.8 °C |

Biological target: Cyclin-dependent kinase 16 (Homo sapiens) (UniProt Q00536)

| ΔTm | Structure (SMILES) |
| --- | --- |
| 2 °C | O=C1Cc2c([nH]c3ccc(Br)cc23)-c2ccccc2N1 [KENPAULLONE] |
| 1.7 °C | O=C1Nc2ccccc2/C1=C\c1ccc[nH]1 |

| Structure (SMILES) | ΔTm |
| --- | --- |
| CCOc1ccc(/C=C2/SC(=O)N(CCN)C2=O)cc1 [HIAZOLIDINEDIONE1] | 0.2 °C |

Biological target: Tyrosine-protein kinase JAK1 (Homo sapiens) (UniProt P23458)
Sequence (P23458 whole entry): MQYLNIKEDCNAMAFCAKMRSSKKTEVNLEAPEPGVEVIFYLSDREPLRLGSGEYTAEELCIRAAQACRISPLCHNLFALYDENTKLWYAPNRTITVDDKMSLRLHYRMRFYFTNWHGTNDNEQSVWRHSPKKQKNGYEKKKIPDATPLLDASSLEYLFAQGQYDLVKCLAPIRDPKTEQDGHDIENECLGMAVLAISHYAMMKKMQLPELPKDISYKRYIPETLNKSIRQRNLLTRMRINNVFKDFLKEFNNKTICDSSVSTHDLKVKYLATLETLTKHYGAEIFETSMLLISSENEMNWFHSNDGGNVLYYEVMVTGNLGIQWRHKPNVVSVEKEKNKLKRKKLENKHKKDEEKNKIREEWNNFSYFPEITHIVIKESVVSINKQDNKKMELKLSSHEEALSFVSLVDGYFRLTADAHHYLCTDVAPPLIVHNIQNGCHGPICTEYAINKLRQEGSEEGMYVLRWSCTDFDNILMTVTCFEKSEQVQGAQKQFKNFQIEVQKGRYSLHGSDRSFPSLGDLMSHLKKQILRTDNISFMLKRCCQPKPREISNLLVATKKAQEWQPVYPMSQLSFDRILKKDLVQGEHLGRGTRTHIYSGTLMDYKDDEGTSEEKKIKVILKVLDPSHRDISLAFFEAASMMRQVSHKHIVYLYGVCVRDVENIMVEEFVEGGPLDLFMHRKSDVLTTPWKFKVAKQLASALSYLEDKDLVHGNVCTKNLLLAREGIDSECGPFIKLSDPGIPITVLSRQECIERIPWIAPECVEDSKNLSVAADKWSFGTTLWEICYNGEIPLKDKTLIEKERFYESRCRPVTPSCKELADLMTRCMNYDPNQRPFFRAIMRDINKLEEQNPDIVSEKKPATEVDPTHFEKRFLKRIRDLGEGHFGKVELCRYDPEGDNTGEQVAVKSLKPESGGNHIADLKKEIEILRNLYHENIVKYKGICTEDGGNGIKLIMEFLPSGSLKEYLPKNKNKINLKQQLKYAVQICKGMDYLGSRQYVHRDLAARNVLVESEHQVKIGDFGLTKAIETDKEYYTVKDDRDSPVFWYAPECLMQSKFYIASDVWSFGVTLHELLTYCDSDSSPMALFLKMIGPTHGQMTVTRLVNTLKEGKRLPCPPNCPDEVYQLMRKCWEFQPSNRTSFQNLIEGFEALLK

| ΔTm | Structure (SMILES) |
| --- | --- |
| 1.7 °C | O=C1Cc2c([nH]c3ccc(Br)cc23)-c2ccccc2N1 [KENPAULLONE] |
| 8.5 °C | O=C1Nc2ccccc2/C1=C\c1ccc[nH]1 |

| Structure (SMILES) | ΔTm |
| --- | --- |
| CCOc1ccc(/C=C2/SC(=O)N(CCN)C2=O)cc1 [HIAZOLIDINEDIONE1] | -0.1 °C |

Biological target: Calcium/calmodulin-dependent protein kinase kinase 2 (Homo sapiens, UniProt Q96RR4)

| ΔTm | Structure (SMILES) |
| --- | --- |
| 2 °C | O=C1Cc2c([nH]c3ccc(Br)cc23)-c2ccccc2N1 [KENPAULLONE] |
| 4.7 °C | O=C1Nc2ccccc2/C1=C\c1ccc[nH]1 |

| Structure (SMILES) | ΔTm |
| --- | --- |
| CCOc1ccc(/C=C2/SC(=O)N(CCN)C2=O)cc1 [HIAZOLIDINEDIONE1] | -0.4 °C |

Biological target: Serine/threonine-protein kinase 38 (Homo sapiens) (UniProt Q15208)

| ΔTm | Structure (SMILES) |
| --- | --- |
| 1.1 °C | O=C1Cc2c([nH]c3ccc(Br)cc23)-c2ccccc2N1 [KENPAULLONE] |
| 2.7 °C | O=C1Nc2ccccc2/C1=C\c1ccc[nH]1 |

| Structure (SMILES) | ΔTm |
| --- | --- |
| CCOc1ccc(/C=C2/SC(=O)N(CCN)C2=O)cc1 [HIAZOLIDINEDIONE1] | 0.5 °C |
